Experimental data published in ChEMBL document CHEMBL5385904, “Design, synthesis and biological evaluation of seco-DSP/DCK derivatives reversing P-glycoprotein-mediated paclitaxel resistance in A2780/T cells” (Eur J Med Chem, 2023).
Activity calls are given as the source filed them. No cut-off for these calls is given here.

How the values were obtained:
[1] = test system: A2780/Taxol; experiment: Cytotoxicity against human A2780/Taxol cells assessed survival rate at 10 uM incubated for 48 hrs by MTT assay; type: functional
[2] = test system: A2780/Taxol; experiment: Reversal of multi-drug resistance in human A2780/Taxol cells incubated for 48 hrs by MTT assay; type: functional, cell-based
[3] = test system: A2780/Taxol; experiment: Reversal of multidrug resistance in human A2780/Taxol Cells assessed as reversal fold of paclitaxel IC50 at 10 uM incubated for 48 hrs by MTT assay; type: functional
[4] = Stability in human microsomal fraction preincubated for 10 mins followed by NADPH addition and measured upto 60 mins by LC-MS/MS analysis; type: ADME, microsomes, Microsome; details: time < 70 min, read-out: Stability
[5] = Stability in water assessed as parent compound remaining measured immediately by LC-MS/MS analysis; type: physicochemical; details: read-out: Stability
[6] = test system: A2780/Taxol; experiment: Reversal of multi-drug resistance in human A2780/Taxol cells at 5 to 20 uM incubated for 48 hrs by MTT assay; type: functional, cell-based; details: dose 5-20 µM
[7] = test system: A2780; experiment: Reversal of drug-sensitive human A2780 cells at 2.5 to 20 uM incubated for 48 hrs in presence of paclitaxel by MTT assay; type: functional, cell-based; details: dose 2.5-20 µM
[8] = target: T1, ATP-dependent translocase ABCB1 (Homo sapiens, UniProt P08183); experiment: Inhibition of P-gp-mediated rhodamine-123 efflux in human A2780/Taxol cells assessed as increase in fluorescence intensity at 10 uM by flow cytometric analysis; type: cell-based; details: 1 h, TDE = time-dependent effect, time < 60 min
T1 sequence (P08183 whole entry): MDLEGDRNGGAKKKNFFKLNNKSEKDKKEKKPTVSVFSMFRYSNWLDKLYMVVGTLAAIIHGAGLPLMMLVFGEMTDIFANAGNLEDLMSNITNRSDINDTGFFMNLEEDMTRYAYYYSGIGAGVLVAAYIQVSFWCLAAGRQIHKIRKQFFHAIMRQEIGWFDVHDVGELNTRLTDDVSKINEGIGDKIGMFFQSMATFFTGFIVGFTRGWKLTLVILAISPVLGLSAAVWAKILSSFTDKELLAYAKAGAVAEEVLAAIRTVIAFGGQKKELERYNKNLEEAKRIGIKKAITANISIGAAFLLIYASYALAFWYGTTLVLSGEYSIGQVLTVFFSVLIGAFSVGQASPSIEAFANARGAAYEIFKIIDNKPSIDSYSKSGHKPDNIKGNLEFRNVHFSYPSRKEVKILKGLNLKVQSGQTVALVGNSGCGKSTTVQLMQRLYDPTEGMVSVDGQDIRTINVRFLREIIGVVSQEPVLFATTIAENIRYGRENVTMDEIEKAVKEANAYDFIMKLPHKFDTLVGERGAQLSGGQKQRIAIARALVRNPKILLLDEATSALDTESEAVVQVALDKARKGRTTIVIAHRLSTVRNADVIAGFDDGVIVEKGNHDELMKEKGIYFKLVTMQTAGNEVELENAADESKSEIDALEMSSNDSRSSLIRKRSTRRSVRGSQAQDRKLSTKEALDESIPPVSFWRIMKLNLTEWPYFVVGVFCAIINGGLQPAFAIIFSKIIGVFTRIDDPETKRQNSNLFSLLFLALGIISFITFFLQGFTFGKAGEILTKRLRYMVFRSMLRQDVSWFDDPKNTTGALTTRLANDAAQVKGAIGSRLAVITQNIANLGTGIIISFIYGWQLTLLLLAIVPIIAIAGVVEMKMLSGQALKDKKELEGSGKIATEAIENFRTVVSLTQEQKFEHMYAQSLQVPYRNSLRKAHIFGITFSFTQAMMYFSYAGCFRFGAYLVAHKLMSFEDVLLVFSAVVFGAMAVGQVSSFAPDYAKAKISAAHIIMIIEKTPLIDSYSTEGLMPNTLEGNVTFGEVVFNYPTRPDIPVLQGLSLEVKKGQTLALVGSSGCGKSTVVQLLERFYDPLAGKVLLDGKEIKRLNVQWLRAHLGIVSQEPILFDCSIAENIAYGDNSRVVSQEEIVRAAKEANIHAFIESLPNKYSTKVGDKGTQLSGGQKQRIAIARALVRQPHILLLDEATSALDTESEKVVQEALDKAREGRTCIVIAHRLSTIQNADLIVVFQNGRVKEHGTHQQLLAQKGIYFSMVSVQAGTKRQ

[9] = Stability in mouse plasma assessed as parent compound remaining measured at 30 mins by LC-MS/MS analysis; type: ADME, cell-free; details: read-out: Stability
[10] = test system: A2780; experiment: Cytotoxicity against human A2780 cells assessed as reduction in cell viability at 10 to 20 uM incubated for 48 hrs by MTT assay; type: functional, cell-based; details: dose 10-20 µM
[11] = target: T1, ATP-dependent translocase ABCB1; experiment: Inhibition of P-gp in human A2780/Taxol cells assessed as paclitaxel accumulation in cells by measuring increase in fluorescence intensity at 2.5 to 20 uM incubated for 8 hrs; type: cell-based; details: dose 2.5-20 µM
[12] = target: T1, ATP-dependent translocase ABCB1; experiment: Inhibition of P-gp in human A2780/Taxol cells assessed as paclitaxel accumulation in cells by measuring increase in fluorescence intensity at 2.5 to 10 uM incubated for 8 hrs; type: cell-based; details: dose 2.5-10 µM
[13] = Stability in mouse plasma assessed as parent compound remaining measured immediately by LC-MS/MS analysis; type: ADME, cell-free; details: read-out: Stability
[14] = target: T2, hERG (KCNH2) (Homo sapiens, UniProt Q12809); experiment: Inhibition of hERG at 40 uM by patch clamp assay relative to control; type: toxicity
T2 sequence (Q12809 whole entry): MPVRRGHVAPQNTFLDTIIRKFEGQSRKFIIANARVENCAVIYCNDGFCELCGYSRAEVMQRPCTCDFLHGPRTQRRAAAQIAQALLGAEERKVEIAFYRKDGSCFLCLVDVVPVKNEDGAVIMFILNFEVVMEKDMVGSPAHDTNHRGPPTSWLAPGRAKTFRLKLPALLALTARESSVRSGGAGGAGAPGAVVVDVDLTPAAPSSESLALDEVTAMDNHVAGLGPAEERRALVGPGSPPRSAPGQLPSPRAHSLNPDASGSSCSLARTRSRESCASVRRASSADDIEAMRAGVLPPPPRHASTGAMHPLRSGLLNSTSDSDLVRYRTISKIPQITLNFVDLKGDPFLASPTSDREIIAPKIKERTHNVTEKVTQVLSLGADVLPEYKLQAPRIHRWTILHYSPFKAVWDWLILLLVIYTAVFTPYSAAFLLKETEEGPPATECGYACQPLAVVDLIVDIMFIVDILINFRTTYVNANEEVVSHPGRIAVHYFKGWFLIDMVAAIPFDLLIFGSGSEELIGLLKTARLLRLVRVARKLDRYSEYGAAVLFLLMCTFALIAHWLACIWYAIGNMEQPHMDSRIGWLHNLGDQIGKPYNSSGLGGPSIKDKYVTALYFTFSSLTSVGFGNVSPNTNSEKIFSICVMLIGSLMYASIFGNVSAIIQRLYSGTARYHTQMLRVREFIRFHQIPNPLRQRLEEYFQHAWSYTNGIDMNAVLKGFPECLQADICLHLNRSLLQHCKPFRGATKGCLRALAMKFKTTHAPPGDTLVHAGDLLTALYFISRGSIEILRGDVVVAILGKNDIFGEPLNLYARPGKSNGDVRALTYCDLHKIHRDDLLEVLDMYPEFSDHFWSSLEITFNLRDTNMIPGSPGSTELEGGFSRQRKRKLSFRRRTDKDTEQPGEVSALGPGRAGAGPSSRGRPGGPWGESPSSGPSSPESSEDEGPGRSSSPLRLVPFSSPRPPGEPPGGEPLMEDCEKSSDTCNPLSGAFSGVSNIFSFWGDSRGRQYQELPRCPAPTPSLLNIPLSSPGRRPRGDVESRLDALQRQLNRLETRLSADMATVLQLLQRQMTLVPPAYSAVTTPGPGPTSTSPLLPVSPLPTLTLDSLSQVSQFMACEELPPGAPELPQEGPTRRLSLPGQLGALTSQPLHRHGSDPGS

[15] = Stability in water assessed as parent compound remaining measured at 30 mins by LC-MS/MS analysis; type: physicochemical; details: read-out: Stability
[16] = test system: A2780/Taxol; experiment: Effect on p-gp expression in human A2780/Taxol cells at 5 to 20 uM by Western blot analysis; type: functional, cell-based; details: dose 5-20 µM
[17] = target: T1, ATP-dependent translocase ABCB1; experiment: Inhibition of P-gp-mediated rhodamine-123 efflux in human A2780/Taxol cells assessed as increase in fluorescence intensity at 10 uM measured upto 60 mins by flow cytometric analysis; type: cell-based; details: 1 h
[18] = target: T1, ATP-dependent translocase ABCB1; experiment: Inhibition of P-gp in human A2780/Taxol cells assessed as paclitaxel accumulation in cells by measuring increase in fluorescence intensity at 5 to 20 uM incubated for 8 hrs; type: cell-based; details: dose 5-20 µM
[19] = target: Voltage-gated inwardly rectifying potassium channel KCNH2 (Homo sapiens, UniProt Q12809); experiment: Inhibition of hERG by patch clamp assay; type: toxicity
Chain of Voltage-gated inwardly rectifying potassium channel KCNH2 (Q12809 whole entry): as above

[20] = target: T1, ATP-dependent translocase ABCB1; experiment: Inhibition of P-gp in human A2780/Taxol cells assessed as paclitaxel accumulation in cells by measuring increase in fluorescence intensity incubated for 8 hrs; type: cell-based; details: at 2.5 to 20 µM, dose 2.5-20 µM
[21] = test system: A2780/Taxol; experiment: Reversal of multi-drug resistance in human A2780/Taxol cells at 10 to 20 uM incubated for 48 hrs by MTT assay; type: functional, cell-based; details: dose 10-20 µM
[22] = target: T2, hERG (KCNH2); experiment: Inhibition of hERG at 3 uM by patch clamp assay relative to control; type: toxicity

SMILES	IC50 [2] [nM]	remaining at 1 h [4] [%]	Cell survival rate [1] [%]	fold change (FC) [3]	Activity [7]	Activity [10]	also measured
CCOc1ccc2c(C)cc(=O)oc2c1CNC(=O)/C=C/c1ccc(OC)cc1	29	44.3	96	150			inhibition at 40 µM [14]: 32.5%; IC50 [19]: > 40000 nM
COc1cc2c(cc1OC)CN(CCc1ccc(NC(=O)c3cc(OC)c(OC)cc3NC(=O)c3cnc4ccccc4c3)cc1)CC2 [TARIQUIDAR]					Active	Active	Activity [21]: Active; inhibition (INH) [18]: Active
COc1cc(N)c(Cl)cc1C(=O)NC1CCN(CCCOc2ccc(F)cc2)CC1OC (stereo not drawn) [CISAPRIDE]							inhibition at 3 µM [22]: 98%
Cc1c(Cc2ccccc2)c(=O)oc2c(COC(=O)c3ccccc3)c(OC(C)C)ccc12	62		81	71			
COc1ccc(CCN(C)CCCC(C#N)(c2ccc(OC)c(OC)c2)C(C)C)cc1OC (stereo not drawn) [VERAPAMIL]			81		Active	Active	Activity [21]: Active

Further lines, with some results ahead:

IC50 [2] [nM]	remaining at 1 h [4] [%]	SMILES	Cell survival rate [1] [%]	fold change (FC) [3]	Activity [7]	Activity [10]	also measured
29	11.8	CCOc1ccc2c(=O)cc(CC)oc2c1CNC(=O)/C=C/c1ccc(OC)cc1	91	153			
31	29.4	CCc1cc(=O)c2ccc(OC(C)C)c(CNC(=O)/C=C/c3ccc(OC)cc3)c2o1	79	142			
10	0.877	COc1cc(CC(=O)OCc2c(OC(C)C)ccc3c(C)c(Cc4ccccc4)c(=O)oc23)cc(OC)c1OC	81	425	Active	Active	remaining at 0 min [5]: 100%; Activity ([2]; dose 2.5-20 µM): Dose-Dependent Effect; Activity [6]: Active; inhibition (INH) [8]: Tde; remaining at 0.5 h [9]: 0.72%; inhibition (INH) [11]: Active; inhibition (INH) [12]: Active; remaining at 0 min [13]: 100%; inhibition at 40 µM [14]: 19%; remaining at 0.5 h [15]: 89.1%; Activity [16]: Active; inhibition (INH) [17]: Active; inhibition (INH) [18]: Active; IC50 [19]: > 40000 nM; inhibition (INH) [20]: Dose-Dependent Effect
294		Cc1c(Cc2ccc(F)cc2)c(=O)oc2c(COC(=O)/C=C/c3ccccc3)c(OC(C)C)ccc12	90	15			
88		COc1cc(CC(=O)OCc2c(OC(C)C)ccc3c(C)c(CCc4ccccc4)c(=O)oc23)cc(OC)c1OC	93	50			
